Data: US12239686B2, “Immune checkpoint inhibitor combinations” (LYTIX BIOPHARMA AS, priority 2014, dated 2025)
Non-standard residues stand in square brackets, D forms with d. Residues, ends and D or L forms follow the SMILES beside them. Dip = N[C@H](C(=O)O)C(c1ccccc1)c1ccccc1

Key:
HL-60/ADR = test: In vitro cytotoxic activity, MTS assay; resistance index; assay type: cell-based, human; settings: HL-60/ADR vs sensitive HL-60 (doxorubicin resistance)
Description: (§1) Tumor cells were grown as adherent monolayers or as suspensions at 37° C. in a humidified atmosphere (5% CO2, 95% air). The culture medium was RPMI 1640 containing 2 mM L-glutamine (Lonza, Belgium) and supplemented with 10% fetal bovine serum (FBS, Lonza). For experimental use, the adherent cells were detached from the culture flask by a 5-minute treatment with trypsin-versene (Lonza), diluted in Hanks' medium without calcium or magnesium (Lonza) and neutralized by addition of complete culture medium. Cells were counted in a hemocytometer and their viability was assessed by 0.25% trypan blue exclusion.
(§2) Tumor cells were plated in 96-well flat-bottom microtitration plates (Nunc, Dutscher, Brumath, France) and incubated at 37° C. for 24 hours before treatment in 190 μl of drug-free culture medium supplemented or not with 10% FBS for adherent or suspension growing cell lines, respectively.
(§3) The adherent cell lines were washed once with 200 μl FBS-free culture medium before treatment. Tumor cells were incubated for 4 hours with 10 concentrations of compounds in ¼ dilution step with a top dose of 400 μM (range 4×10^−4 to 4×10^−10 M), with 1% (final concentration) Triton X-100 as positive control and FBS-free culture medium as negative control. The cells (190 μl) were incubated in a 200 μl final volume of FBS-free culture medium containing test substances at 37° C. under 5% CO2.
(§4) Three independent experiments were performed, each concentration being tested in quadruplicate. Control cells were treated with vehicle alone. At the end of treatments, the cytotoxic activity was evaluated by a MTS assay (see § 3.3).
(§5) Like MTT, MTS is bioreduced by cells into a formazan product that is directly soluble in culture medium without processing, unlike MTT.
(§6) At the end of the cells treatment, 40 μl of a 0.22 μm filtered freshly combined solution of MTS (20 ml at 2 mg/ml, Ref G1111, Batch 235897, Exp 03/2009, Promega, Charbonnières, France) and PMS (1 ml at 0.92 mg/ml, Ref P9625, Batch 065K0961, Sigma) in Dulbecco's Phosphate Buffered Saline (DPBS, Ref 17-513Q, Batch 6MB0152, Cambrex), were added in each well. Culture plates were incubated for 2 h at 37° C. Absorbency (OD) were measured at 490 nm in each well using VICTOR^3TM 1420 multilabeled counter (Wallac, PerkinElmer, Courtaboeuf, France).
(§7) [formula] • The OD values are the mean of 4 experimental measurements. • IC50: drug concentration to obtain a 50% inhibition of cell proliferation.
(§8) The dose-response curves were plotted using XLFit 3 (IDBS, United Kingdom). The IC50 determination values were calculated using the XLFit 3 software from semi-log curves. Individual IC50 determination values as well as mean and SD values were generated.
(§9) Resistance index was calculated using the following formula: […]
(§10) Resistance index was calculated for each compound for each couple of sensitive and resistant cell lines. Individual resistance index was calculated when IC50 values of both sensitive and corresponding resistant cell lines were determined within same experiment. In addition, resistance index was also calculated ratio of mean IC50 values obtained during three independent experiments.

A375 cells = test: Release of ATP, luciferase assay of supernatant; assay type: cell-based, human; settings: concentration-dependent
Description: The supernatant of LTX-315-treated A375 cells was analyzed using an Enliten ATP luciferase assay kit (Promega, USA). Cells were then seeded as with an ROS assay, and treated with LTX-315 in different incubation times, from 1 to 15 minutes with two parallels, which was then conducted three times. Negative controls were untreated A375 cells exposed to serum-free media alone. Samples were diluted at 1:50 and 1:100, and analyzed with a Luminoscan RT luminometer according to the manufacturer's protocol.

[1] = test system: murine A20 B-cell lymphoma; test: Murine A20 B-cell lymphoma tumours in mice, intratumoural treatment; assay type: in vivo; settings: for Mean tumour size (mm^2) at day 1: prior to start of treatment
Description: The administration took place by intratumoural injection of LTX-315 dissolved in sterile saline.
The mice were divided into four groups (see Table 8 below for details). The intratumoural treatment was initiated when the tumours had reached the desired size of approximately 5 mm in diameter (minimum of 20 mm^2).
Three dose levels of LTX-315, 1 mg (Group 1), 0.5 mg (Group 2) and 0.25 mg (Group 3) per injection, were investigated. The volume was 50 μl for all injections. LTX-315 was dissolved in sterile 0.9% NaCl water solution. This vehicle was used as control (Group 4). All four groups received three injections.
A calliper was used for tumour size measurements and weighing and physical examination were used as health control.

MCF-7/mdr = assay type: cell-based, human
Description: as §1, §2, §3, §4, §5, §6, §7, §8, §9, §10

IGROV-1/CDDP = assay type: cell-based, human
Description: as §1, §2, §3, §4, §5, §6, §7, §8, §9, §10

A375 melanoma cells = test: Live cell imaging, bright field confocal microscopy; assay type: cell-based, human; settings: at an IC-50 value, majority of the cells
Description: Live cell imaging with unlabeled cells-A375 cells were seeded at 10,000 cells/well in a complete media in Nunc Lab-Tec 8-wells chambered covered glass (Sigma) precoated with 25 μg/ml human fibronectin (Sigma) that were allowed to adhere overnight. Cells were washed twice with a serum-free RPMI, treated with peptide dissolved in RPMI and investigated using Bright on a Leica TCS SP5 confocal microscope, with a 63X/1.2W objective. The microscope was equipped with an incubation chamber with CO2 and temperature control.

[2] = Group 1, 1 mg intratumoural days 1,2,3
[3] = Group 2, 0.5 mg intratumoural days 1,2,3
[4] = Group 3, 0.25 mg intratumoural days 1,2,3

Which “Resistance index (RI)” value (HL-60/ADR) does the source give for `NCCCC[C@H](NC(=O)[C@@H](NC(=O)[C@H](Cc1c[nH]c2ccccc12)NC(=O)[C@H](CCCCN)NC(=O)[C@H](CCCCN)NC(=O)[C@H](Cc1c[nH]c2ccccc12)NC(=O)[C@H](Cc1c[nH]c2ccccc12)NC(=O)[C@H](CCCCN)NC(=O)[C@@H](N)CCCCN)C(c1ccccc1)c1ccccc1)C(N)=O` [LTX-315, K-K-W-W-K-K-W-Dip-K-NH2] (H-KKWWKKW[Dip]K-NH2) here?
Its value is 1.45.

What about the “extracellular ATP release” value (A375 cells) of the same compound?
Its value is “ATP was detected in the supernatant as early as after 5 minutes of treatment”.

And the “Mean tumour size (mm^2) on day 4” value [1, 2]?
Its value is 0 mm^2.

What about the “Mean tumour size (mm^2) on day 9” value [1, 2] of the same compound?
Its value is 3.70 ± 2.40 mm^2.

And the “Mean tumour size (mm^2) on day 14” value [1, 2]?
The value was 12.43 ± 7.87 mm^2.

What about the “Mean tumour size (mm^2) at day 1” value [1, 2] of the same compound?
The value was 25.82 ± 0.80 mm^2.

What about the “Relapse of Tumour” value ([1]; Group 1, 1 mg x3) of the same compound?
Its value is 25%.

And the “Free of Tumour at end of Follow-Up” value ([1]; Group 1, 1 mg x3, n=7)?
The value was 42.8%.

And the “Tumour Response: complete response” value ([1]; Group 1, 1 mg x3, n=7)?
The value was 57.2%.

What about the “Tumour Response: partial response” value ([1]; Group 1, 1 mg x3, n=7) of the same compound?
Its value is 42.8%.

What about the “treated mice with a complete tumour response” value ([1]; Group 1, optimal dose 1 mg x3) of the same compound?
Its value is 3 of 7.

And the “Mean tumour size (mm^2) on day 4” value [1, 3]?
The value was 0 mm^2.

And the “Mean tumour size (mm^2) on day 9” value [1, 3]?
Its value is 11.41 ± 4.69 mm^2.

And the “Mean tumour size (mm^2) on day 14” value [1, 3]?
Its value is 61.08 ± 23.84 mm^2.

What about the “Mean tumour size (mm^2) at day 1” value [1, 3] of the same compound?
Its value is 22.03 ± 0.63 mm^2.

And the “Relapse of Tumour” value ([1]; Group 2, 0.5 mg x3)?
The value was 0%.

And the “Free of Tumour at end of Follow-Up” value ([1]; Group 2, 0.5 mg x3, n=7)?
Its value is 28.57%.

What about the “Tumour Response: complete response” value ([1]; Group 2, 0.5 mg x3, n=7) of the same compound?
The value was 28.57%.

What about the “Mean tumour size (mm^2) on day 4” value [1, 4] of the same compound?
Its value is 20.60 ± 5.71 mm^2.

What about the “Mean tumour size (mm^2) on day 9” value [1, 4] of the same compound?
The value was 68.49 ± 12.74 mm^2.

And the “Mean tumour size (mm^2) on day 14” value [1, 4]?
The value was 69.42 ± 17.70 mm^2.

And the “Mean tumour size (mm^2) at day 1” value [1, 4]?
Its value is 21.25 ± 0.64 mm^2.

And the “Tumour Response: complete response” value ([1]; Group 3, 0.25 mg x3, n=9)?
The value was 0%.

What about the “adverse events or toxic effects” value ([1]; all LTX-315 groups, apart from wound formation) of the same compound?
Its value is “no other adverse events or toxic effects were observed”.

What about the “Resistance index (RI)” value (MCF-7/mdr; MCF-7/mdr vs sensitive MCF-7 (doxorubicin resistance)) of the same compound?
The value was 1.12.

And the IC50 (MCF-7/mdr; MCF-7/mdr, resistant)?
Its IC50 is 1960 nM.

And the “Resistance index (RI)” value (IGROV-1/CDDP; IGROV-1/CDDP vs IGROV-1 (cisplatin resistance))?
Its value is 0.50.

And the IC50 (IGROV-1/CDDP; IGROV-1/CDDP, resistant)?
The IC50 was 3190 nM.

What about the “time to cell collapse with extrusion of cytoplasmic content” value (A375 melanoma cells) of the same compound?
Its value is 15 to 60 min.
